This passage reports Ki results from ChEMBL document CHEMBL1146185, “P2-P4 macrocyclic inhibitors of hepatitis C virus NS3-4A serine protease” (Bioorg Med Chem Lett, 2006).

NS3, sequence (A3EZJ3 whole entry): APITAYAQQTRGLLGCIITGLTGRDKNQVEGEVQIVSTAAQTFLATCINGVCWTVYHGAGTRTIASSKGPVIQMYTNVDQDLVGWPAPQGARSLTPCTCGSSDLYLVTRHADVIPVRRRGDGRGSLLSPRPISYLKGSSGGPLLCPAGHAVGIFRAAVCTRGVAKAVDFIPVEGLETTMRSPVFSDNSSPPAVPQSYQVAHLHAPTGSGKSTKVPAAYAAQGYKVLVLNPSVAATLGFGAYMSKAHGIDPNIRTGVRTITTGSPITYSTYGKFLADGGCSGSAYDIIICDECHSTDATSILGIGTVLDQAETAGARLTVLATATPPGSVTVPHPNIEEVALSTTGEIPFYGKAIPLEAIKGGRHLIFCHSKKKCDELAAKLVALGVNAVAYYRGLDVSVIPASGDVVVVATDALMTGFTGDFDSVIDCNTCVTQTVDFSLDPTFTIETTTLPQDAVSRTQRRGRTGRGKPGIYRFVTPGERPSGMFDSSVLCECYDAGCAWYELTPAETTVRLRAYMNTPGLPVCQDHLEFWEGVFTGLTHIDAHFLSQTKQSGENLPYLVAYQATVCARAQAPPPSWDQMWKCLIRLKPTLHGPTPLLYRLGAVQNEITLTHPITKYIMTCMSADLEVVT

The assay addresses NS3 (Hepatitis C virus, UniProt A3EZJ3). In words: Binding affinity to HCV NS3 protease. The arrangement: species or system Hepacivirus hominis.
The compound `CCCC(NC(=O)[C@@H]1C[C@@H]2CN1C(=O)[C@H](C1CCCCC1)NC(=O)Cc1ccc(C)c(c1)OCCCO2)C(=O)C(=O)NCC(=O)N[C@H](C(=O)N(C)C)c1ccccc1` (some centres not stated) gave a Ki of 12 nM.

As to `CCCC(NC(=O)[C@@H]1C[C@@H]2CN1C(=O)[C@H]([C@H]1CC[C@H](C(=O)O)CC1)NC(=O)Cc1cccc(c1)OCCCO2)C(=O)C(=O)NCC(=O)N[C@H](C(=O)N(C)C)c1ccccc1` (some centres not stated), the Ki is 19 nM.

`CCCC(NC(=O)[C@@H]1C[C@@H]2CN1C(=O)[C@H](C1CCCC(C(=O)O)C1)NC(=O)Cc1cccc(c1)OCCCO2)C(=O)C(=O)NCC(=O)N[C@H](C(=O)N(C)C)c1ccccc1` (some centres not stated): affinity was put at a Ki of 6 nM.

Regarding `CCCC(NC(=O)[C@@H]1C[C@@H]2CN1C(=O)[C@H](C1CCCCC1)NC(=O)Cc1cccc(c1)OCCCO2)C(=O)C(=O)NCC(=O)N[C@H](C(=O)N(C)C)c1ccccc1` (some centres not stated), the inhibition constant Ki is 8 nM.

With `CCCC(NC(=O)[C@@H]1C[C@@H]2CN1C(=O)[C@H](C1CCCCC1)NC(=O)Cc1cc(C)cc(c1)OCCCO2)C(=O)C(=O)NCC(=O)N[C@H](C(=O)N(C)C)c1ccccc1` (some centres not stated), the Ki stood at 30 nM.

On to `CCCC(NC(=O)[C@@H]1C[C@@H]2CN1C(=O)[C@H](C1CCCCC1)NC(=O)N(C)Cc1cccc(c1)OCCCO2)C(=O)C(=O)NCC(=O)N[C@H](C(=O)N(C)C)c1ccccc1` (some centres not stated), for which the affinity corresponds to a Ki of 26 nM.

Compound `CCCC(NC(=O)[C@@H]1C[C@@H]2CN1C(=O)[C@H](C1CCCCC1)NC(=O)Nc1cccc(c1)OCCCO2)C(=O)C(=O)NCC(=O)N[C@H](C(=O)N(C)C)c1ccccc1` (some centres not stated) gave a Ki of 1600 nM.

`CCCC(NC(=O)[C@@H]1C[C@@H]2CN1C(=O)[C@H]([C@H]1CC[C@@H](C(=O)O)CC1)NC(=O)Cc1cccc(c1)OCCCO2)C(=O)C(=O)NCC(=O)N[C@H](C(=O)N(C)C)c1ccccc1` (some centres not stated) showed a Ki of 30 nM.

The compound `CCCC(NC(=O)[C@@H]1C[C@@H]2CN1C(=O)[C@H](C(C)(C)C)NC(=O)c1cccc(c1)OCCCCO2)C(=O)C(=O)NCC(=O)N[C@H](C(=O)N(C)C)c1ccccc1` (some centres not stated) came in with a Ki of 210 nM.

`CCCC(NC(=O)[C@@H]1C[C@@H]2CN1C(=O)[C@H](C1CCCCC1)NC(=O)N(C)c1cccc(c1)OCCCO2)C(=O)C(=O)NCC(=O)N[C@H](C(=O)N(C)C)c1ccccc1` (some centres not stated) had a Ki of 90 nM.

Compound `CCCC(NC(=O)[C@@H]1C[C@@H]2CN1C(=O)[C@H](C(C)(C)C)NC(=O)Oc1cccc(c1)OCCCO2)C(=O)C(=O)NCC(=O)N[C@H](C(=O)N(C)C)c1ccccc1` (some centres not stated) came in with a Ki of 200 nM.

On to `CCCC(NC(=O)[C@@H]1C[C@@H]2CN1C(=O)[C@H](C1CCCCC1)NC(=O)Cc1cc(OC)cc(c1)OCCCO2)C(=O)C(=O)NCC(=O)N[C@H](C(=O)N(C)C)c1ccccc1` (some centres not stated), for which the Ki was 32 nM.

The term Ki denotes a dissociation constant, usually derived from enzyme kinetics or from competition with a known ligand. Read a low Ki as higher affinity.
